# From patent US12382954B2, “Pinocembrin dihydrochalcone and compositions thereof and their use as pesticides” (METABOLIC INSIGHTS LTD., priority 2019, dated 2025)
# Assays:
# Puccinia sorghi = format: cell-based; conditions: 50 ppm
# Puccinia triticina = format: cell-based; conditions: 50 ppm
# Phytophthora infestans [1] = format: cell-based; conditions: 50 ppm, tomato leaf discs, % of maximal value (grade x repeats/12)
# Botrytis cinerea = format: cell-based; conditions: 50 ppm
# Rhizoctonia solani = format: cell-based; conditions: 50 ppm
# Pythium aphanidermatum [2] = format: cell-based; conditions: 50 ppm
# [3] = test system: Pseudoperonospora cubensis; format: cell-based; conditions: 50 ppm
# Fusarium oxysporum [4] = format: cell-based; conditions: 50 ppm
# Sclerotinia sclerotiorum = format: cell-based; conditions: 50 ppm
# [5] = test system: Pectobacterium carotovorum; format: cell-based; conditions: 50 ppm
# Pseudomonas syringae = format: cell-based; conditions: 50 ppm
# Xanthomonas campestris = format: cell-based; conditions: 50 ppm
# Mizus Persicae = assay: In-vitro screening matrix, Mizus Persicae; conditions: 50 ppm
# Spodoptera litoralis = assay: In-vitro screening matrix, Spodoptera litoralis; conditions: 50 ppm
# Fusarium oxysporum [6] = assay: In planta validation, cucumber seedlings infected with Fusarium oxysporum; format: in vivo; conditions: 3 weeks after infection, 3 independent experiments
# Pythium aphanidermatum [7] = assay: In planta validation, cucumber seedlings infected with Pythium aphanidermatum (soil drench); format: in vivo; conditions: 4 days after infection, 150 ppm-500 ppm, 2 independent experiments
# Phytophthora infestans [8] = format: in vivo; conditions: tomato detached leaf experiment, 500-1000 ppm, spray on leaves, 6 days after infection
structure (smiles),measurement,setting,value
"O=C(CCc1ccccc1)c1c(O)cc(O)cc1O [Pinocembrin dihydrochalcone, 3-phenyl-1-(2,4,6-trihydroxyphenyl)propan-1-one]",Relative Activity value (%),Puccinia sorghi,0%
same,Relative Activity value (%),Puccinia triticina,19%
same,Relative Activity value (%),Phytophthora infestans [1],100%
same,Relative Activity value (%),Botrytis cinerea,0%
same,Relative Activity value (%),Rhizoctonia solani,6%
same,Relative Activity value (%),Pythium aphanidermatum [2],100%
same,Relative Activity value (%),[3],50%
same,Relative Activity value (%),Fusarium oxysporum [4],9%
same,Relative Activity value (%),Sclerotinia sclerotiorum,6%
same,Relative Activity value (%),[5],12%
same,Relative Activity value (%),Pseudomonas syringae,6%
same,Relative Activity value (%),Xanthomonas campestris,50%
same,Relative Activity value (%),Mizus Persicae,0%
same,Relative Activity value (%),Spodoptera litoralis,0%
same,range of efficacy in preventing and controlling the Fusarium diseases,Fusarium oxysporum [6]; 100 ppm and 200 ppm,66-100%
same,range of efficacy in preventing and controlling the Fusarium diseases,Fusarium oxysporum [6]; 300 ppm,88-100%
same,range of efficacy in preventing and controlling the Pythium disease,Pythium aphanidermatum [7],up to 100%
same,control of Phytophthora infestans,Phytophthora infestans [8],up to 100%
